Like-named read-outs stand apart in the source and are kept apart here.
Tests used:
[1] = system: human HepG2 cells; test: MTT cell viability (cytotoxicity) assay
Method: To distinguish putatively non-toxic from human cytotoxic compounds, conventional 3-(4,5-dimethylthiazol-2yl)-2,5-diphenyltetrazolium bromide (MTT) cell viability assays (American Type Culture Collection, Manassas, Va.) were performed for each compound of interest at 1× and 4× their MEC. Briefly, human HepG2 cells were grown to approximately 1×10^6 cells per well in Dulbecco's Modified Eagle Media supplemented with 10% fetal bovine serum (Invitrogen, Carlsbad, Calif.) then treated with 1× or 4× the MEC of the indicated […] Cell viability was measured following the addition of the tetrazolium salt (MTT) as per the manufacturer's recommendations; cells challenged with 50 ug ml^−1 Mitomycin C (Sigma Aldrich) and mock-treated cells served as positive and negative controls, respectively.

[2] = system: A. baumannii strain 98-37-09; test: MEC determination: potentiation of minocycline toward serum grown A. baumannii; assay type: cell-based, Acinetobacter baumannii; settings: for Log-reduction Colony Forming Units (ml^−1): 1×MEC of compound plus minocycline in serum, versus minocycline alone, plating; for MEC: lowest concentration inhibiting growth in 100% human serum with 0.5 μg ml^−1 minocycline, 48 hr
Method: The TimTec ActiProbe-25K diversity-set and Natural Product compound libraries (29,900 compounds total; TimTec, Newark, Del.) were initially screened for putative efflux pump inhibitors by identifying compounds that potentiated the antimicrobial property of a sub-inhibitory concentration of minocycline toward A. baumannii grown in human serum. To do so, A. baumannii strain 98-37-09 was grown for 16 hours in LB medium at 37° C. on a rotary shaker at 225 rpm. Approximately 1×10^5 CFU were then transferred to individual wells of a 96-well round-bottom plate (Corning Costar, Tewksbury, Mass.) containing 100 μL of human serum supplemented with of minocycline (0.5 μg mL^−1; 0.5× minimum inhibitory concentration in serum) and individual members of the Timtec ActiProbe or Natural product library (50 μM). Plates were then incubated at 37° C. for 48 hours. Growth was measured as a function of turbidity. Putative efflux pump inhibitors were identified as compounds that inhibited A. baumannii growth in human serum containing minocycline and were subsequently retested in triplicate, as indicated above. Untreated A. baumannii grown in serum supplemented with minocycline+/−PAβN served as positive and negative controls, respectively. […] Repeat testing in which well constituents were serial diluted and plated on LB agar plates validated that 85 compounds did indeed limit A. baumannii growth in serum supplemented with minocycline, reducing the number of viable colony forming units between 2-6 log cfu in comparison to minocycline alone treated cells.
The MEC was defined as the lowest concentration of test compound required to inhibit the growth of A. baumannii in serum in the presence of 0.5 μg ml^−1 minocycline. Plating confirmed that addition of 1×MEC of each compound elicited ≥1.9-log reduction in A. baumannii cells grown in serum supplemented with minocycline alone (see Table 1).

[3] = system: A. baumannii strain 98-37-09; test: Potentiation of ciprofloxacin toward serum grown A. baumannii; assay type: cell-based, Acinetobacter baumannii; settings: 100% human serum, 0.125 μg ml^−1 ciprofloxacin, 1× or 2× MEC, 48 hour, growth inhibition
Excerpt: As a means to further prioritize non-toxic compounds of interest based on their therapeutic promise, it was considered that broad spectrum antimicrobial efflux pump inhibitors may be more clinically valuable than narrow-spectrum agents that only potentiate the activity of a limited number of antibiotics or that display activity toward a single bacterial species. […] To do so, 1×10^5 A. baumannii strain 98-37-09 were inoculated into individual wells of microtiter plates containing 100% human serum supplemented with 0.125 μg ml^−1 ciprofloxacin and 0, 1×, or 2× the compound's MEC, as defined by the lowest concentration needed to potentiated minocycline's antimicrobial effects (above). Plates were incubated for 48 hour at which point each compound's ability to potentiate ciprofloxacin was measured, as growth inhibition.

[4] = system: A. baumannii strain 98-37-09; test: Cellular accumulation of minocycline (HPLC, triple-quadrupole MS); assay type: cell-based, Acinetobacter baumannii; settings: human serum with 0.5 μg mL^−1 minocycline plus test compound (0.5×MEC, 1×MEC), 48 hours
Method: High pressure liquid chromatography and triple-quadrupole mass spectrometry were used to measure the A. baumannii intracellular levels of minocycline during growth in human serum in the absence and presence of each putative efflux pump inhibitor. […] Cultures were incubated for 48 hours with shaking, at which point an aliquot was removed, serially diluted, and plated to determine the number of viable CFU per mixture. The remainder of the cells were pelleted by centrifugation at 900×g at 4° C., washed twice in PBS, mechanically lysed with a FastPrep cell disrupter (MP Biomedicals, Santa Ana, Calif.) for 20 seconds at 5 m s^−1 and the cellular debris was pelleted via centrifugation at 900×g and 4° C. The amount of minocycline present within the supernatant of ruptured cells was measured. Briefly, doxycycline (0.5 μg mL^−1) was first added to each supernatant to serve as an internal control to account for sample-to-sample preparation variability. The supernatant was then combined with acetonitrile (ACN) at a 1:10 ratio and centrifuged at 16,000×g, at 4° C., to collect minocycline and doxycycline. […] residual liquid was evaporated in a speed vacuum for 2 hours at 8,000×g. To quantify the amount of antibiotics retained, sample materials were suspended in 50% acetonitrile, filtered through a 0.2 μm low protein binding hydrophilic membrane (Millipore, Billerica, Mass.) then separated on Shimadzu high performance liquid chromatography instrument (Fisher Scientific) using a BetaBasic C18 reverse phase column (Thermo Scientific). Separation was carried out with two mobile phase solutions consisting of solution (A) water with 0.1% formic acid and solution (B) 100% ACN. The gradient profile of the chromatography runs was as follows: from 0 to 0.1 min 8% solution B, ramp step wise (37% to 60% solution B) from 0.1 to 6.5 min then holding for one minute before ramping down from 60% to 10% from 7.5 to 8 min. This was followed a hold at 10% solution B for one minute. […] The column was equilibrated in 8% solution B at 40° C. and the flow rate was set to 0.2 mL min^−1. Mass spectrometry analysis of fractions was carried out using a Thermo TSQ Quantum Ultra triple quadrupole mass spectrometer (Fisher Scientific). Data were analyzed using Xcalibur software (Thermo Scientific); the following parameters were used to detect minocycline and the internal control doxycycline: 458.208 m/z→282.971 m/z (collision energy=43, tube lens=119) for minocycline and 445.144 m/z→266.900 m/z (collision energy=39, tube lens=127) for doxycycline. Analysis of the raw data was conducted by using the area under the curve calculations with the Genesis algorithm to determine the concentration in each sample. The difference between the peak intensity and the y intercept of pre-established minocycline and doxycycline standard curves was divided by the slope of the standard curve to quantify the amount of minocycline within each sample. The total concentration of minocycline within each cell was calculated by normalizing to the number of cells within each corresponding culture.

[5] = system: A. baumannii; test: Antibiotic susceptibility assay in LB medium or 100% human serum; assay type: cell-based, Acinetobacter baumannii
Method: The antibiotic susceptibility of A. baumannii and Pseudomonas aeruginosa grown in either LB medium or 100% human serum was measured according to the method described below. Briefly, the indicated bacterial species/strain was grown overnight in LB medium, diluted into fresh medium (1:100 dilution) and grown to mid-exponential phase (OD600nm=0.4 to 0.5) at 37° C. with aeration. […] To quantify the antimicrobial effects of each antibiotic toward bacteria grown in LB or serum, well constitutes were serially diluted in PBS and plated on LB agar to enumerate the CFU mL^−1.

Compound | % Viability [1] [%] | Log-reduction Colony Forming Units (ml^−1) [2] [log] | MEC [2] [µg/mL] | Potentiate Ciprofloxacin A. baumannii [3] | Minocylcine Per Cell (femtomoles cell^−1) [4] [femtomoles cell^−1] | also measured
COc1ccc(C2N(Cc3ccccc3)CCN2Cc2ccccc2)cc1 [ST036291] | 75.74 | 3.31 | 2 | No | 5.5E−05 | 
CN(C)c1cc(NC(=O)CNC(C)(C)C)c(O)c2c1C[C@H]1C[C@H]3[C@H](N(C)C)C(O)=C(C(N)=O)C(=O)[C@@]3(O)C(O)=C1C2=O [tigecycline] |  |  |  |  |  | concentration with clear antimicrobial activity ([5]; strain 01-12-05, LB medium): ≥ 1 µg/mL; susceptibility during growth in serum ([5]; strain 01-12-05, human serum): highly-resistant
COC(=O)[C@H]1[C@H]2C[C@@H]3c4[nH]c5cc(OC)ccc5c4CCN3C[C@H]2C[C@@H](OC(=O)c2cc(OC)c(OC)c(OC)c2)[C@@H]1OC [reserpine] |  |  |  |  |  | restoration of tigecycline susceptibility in serum ([5]; strain 01-12-05, addition of efflux pump inhibitor): partially restored; restoration of ciprofloxacin susceptibility in serum ([5]; strain 98-37-09, serum supplemented with efflux pump inhibitor): Ciprofloxacin susceptibility could be restored
O=C(N/N=C/c1ccc2c(c1)OCO2)c1ccccc1O [ST033341] | 75.88 | 2.42 | 2 | No | 3.39E−05 | 
CN(C)[C@@H]1C(O)=C(C(N)=O)C(=O)[C@@]2(O)C(O)=C3C(=O)c4c(O)cccc4[C@@](C)(O)[C@H]3C[C@@H]12 [tetracycline] |  |  |  |  |  | cell viability, LB grown ([5]; 4-16 μg ml^−1 tetracycline, LB): < 1×10^1 colony forming units
Cc1cccc(N(CC(=O)Nc2ccc(Cc3ccncc3)cc2)S(=O)(=O)c2ccccc2)c1 [ST034014] | 84.27 | 2.37 | 2 | No | 5.46E−04 | 
Cc1ccc(C=Nc2cc([N+](=O)[O-])ccc2O)cc1 [ST010277] | 82.4 | 7.33 | 32 | No | 1.15E−05 | 
COC(=O)CCC(=O)Nc1ccc(S(N)(=O)=O)cc1 [ST040289] | 78.8 | 4.32 | 4 | No | 8.38E−04 | 
CCOC(=O)/C=C/C(=O)Nc1ccc(S(N)(=O)=O)cc1 [ST026465] |  | 6.36 | 32 | No | 3.82E−04 | % Viability ([1]; human, 48 h, 4 ×MEC): 100%
CCOC(=O)/C=C/C(=O)Nc1ccc(S(=O)(=O)Nc2nccs2)cc1 [ST026450] |  | 5.37 | 32 | No | 2.35E−06 | % Viability ([1]; human, 48 h, 4 ×MEC): 100%
O=C(O)c1cn(C2CC2)c2cc(N3CCNCC3)c(F)cc2c1=O [ciprofloxacin] |  |  |  |  |  | susceptibility of serum grown versus LB grown cells ([5]; strain 98-37-09, ciprofloxacin ≤1 μg ml^−1): significantly (P<0.001) less susceptible
Nc1ccc(S(=O)(=O)Nc2ncccn2)cc1 [ST059447] | 76.78 | 5.74 | 4 | No | 4.52E−05 | 
O=C1c2ccccc2C(=O)N1CCN1CCNCC1 [ST059581] | 84.56 | 6.12 | 32 | No | 5.64E−05 | 
COc1cc(C(=O)Nc2ccccc2C(=O)NCC2CCCO2)cc(OC)c1OC (stereo not drawn) [ST060053] | 76.11 | 4.94 | 4 | No | 1.78E−04 | 
N#Cc1c(/N=C/c2ccc([N+](=O)[O-])o2)sc2c1CCCC2 [ST033065] | 75.6 | 2.44 | 2 | No | 2.06E−05 | 
COc1ccc2c(c1)CCC(C)N2S(=O)(=O)c1ccc(C2CNC(=O)C2)cc1 (stereo not drawn) [ST058899] | 80.69 | 6.21 | 64 | No | 1.08E−04 | 

— patent US10471028B2, “Small molecule efflux pump inhibitors” (UNIVERSITY OF ROCHESTER, priority 2014, dated 2019)
